Experiments:
Cavia porcellus [1] = assay: Tested for the inhibition of LTD4-induced broncho constriction in Guinea pig; injected intraduodenally at a dose of 25 mg/kg; type: functional; settings: route intraduodenal
Cavia porcellus [2] = assay: Inhibition of LTD4-induced bronchoconstriction in Guinea pig after intragastrical administration of dose of 25 mg/kg; type: functional; settings: po, route intragastric
Cavia porcellus [3] = assay: Inhibition of ovalbumin induced bronchoconstriction in Guinea pig, compound injected intraduodenally at a dose of 25 mg/kg; type: functional; settings: route intraduodenal
Cavia porcellus [4] = assay: Inhibition of LTD4-induced broncho constriction in Guinea pig, compound injected intraduodenally at a dose of 25 mg/kg; type: functional; settings: route intraduodenal
Cavia porcellus [5] = assay: Inhibition of ovalbumin induced bronchoconstriction in Guinea pig, compound injected intragastrically, dose is 25 mg/kg; type: functional; settings: po, route intragastric
Cavia porcellus [6] = assay: Inhibition of LTD4-induced bronchoconstriction in Guinea pig after intragastrical administration of dose of 3 mg/kg; type: functional; settings: po, route intragastric
Cavia porcellus [7] = assay: Inhibition of LTD4-induced broncho constriction in Guinea pig after intraduodenal administration of a dose of 3 mg/kg; type: functional
Cavia porcellus [8] = assay: Inhibition of ovalbumin induced bronchoconstriction in Guinea pig, compound injected intragastrically, dose is 10 mg/kg; type: functional; settings: po, route intragastric
Cavia porcellus [9] = assay: Inhibition of ovalbumin induced bronchoconstriction in Guinea pig, compound injected intraduodenally at a dose of 10 mg/kg; type: functional; settings: route intraduodenal
[10] = molecular target: T1, Polyunsaturated fatty acid 5-lipoxygenase (Rattus norvegicus, UniProt P12527); assay: Concentration that produces 50% inhibition of A-23187-stimulated radiolabeled 5-HETE and TXB2 synthesis by PMN 5-lipoxygenase.
T1 sequence (P12527 whole entry): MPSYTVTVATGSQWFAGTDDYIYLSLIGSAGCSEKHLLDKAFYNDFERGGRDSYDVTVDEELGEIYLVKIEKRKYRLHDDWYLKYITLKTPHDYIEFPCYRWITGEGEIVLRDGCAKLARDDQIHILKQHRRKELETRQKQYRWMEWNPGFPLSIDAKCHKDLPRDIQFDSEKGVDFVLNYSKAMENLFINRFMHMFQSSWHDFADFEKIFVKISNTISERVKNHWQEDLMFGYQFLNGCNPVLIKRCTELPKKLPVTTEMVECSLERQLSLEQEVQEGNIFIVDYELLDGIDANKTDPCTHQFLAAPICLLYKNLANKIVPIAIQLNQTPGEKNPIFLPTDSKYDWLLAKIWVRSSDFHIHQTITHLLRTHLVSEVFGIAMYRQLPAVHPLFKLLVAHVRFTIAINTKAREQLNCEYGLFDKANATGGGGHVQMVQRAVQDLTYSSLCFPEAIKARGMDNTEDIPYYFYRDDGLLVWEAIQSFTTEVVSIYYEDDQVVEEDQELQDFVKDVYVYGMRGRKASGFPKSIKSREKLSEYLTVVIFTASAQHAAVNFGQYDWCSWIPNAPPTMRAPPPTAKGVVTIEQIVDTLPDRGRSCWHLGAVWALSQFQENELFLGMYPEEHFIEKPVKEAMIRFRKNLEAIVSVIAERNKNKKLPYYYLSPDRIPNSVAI

Cavia porcellus [11] = assay: Inhibition of LTD4-induced broncho constriction in Guinea pig after intragastrical administration of a dose of 25 mg/kg; type: functional; settings: po, route intragastric
Rattus norvegicus [12] = assay: Antiinflammatory effect was studied in a rat carrageenan paw edema (CE) assay at 50 mg/kg; type: functional
Cavia porcellus [13] = assay: Dissociation constant was determined in vitro after intraduodenal administration in isolated guinea pig trachea; type: ADME, organism-based; settings: in vivo, other
Cavia porcellus [14] = assay: Tested for the inhibition of LTD4-induced bronchoconstriction in Guinea pig, compound injected intraduodenally, dose of 3 mg/kg; type: functional; settings: route intraduodenal
Cyclooxygenase = molecular target: T2, Cyclooxygenase (Rattus norvegicus, UniProt P35355+Q63921); assay: Concentration that produces 50% inhibition of A-23187-stimulated radiolabeled 5-HETE and TXB2 synthesis by Prostaglandin G/H synthase; type: protein assay
T2 sequence (P35355 whole entry): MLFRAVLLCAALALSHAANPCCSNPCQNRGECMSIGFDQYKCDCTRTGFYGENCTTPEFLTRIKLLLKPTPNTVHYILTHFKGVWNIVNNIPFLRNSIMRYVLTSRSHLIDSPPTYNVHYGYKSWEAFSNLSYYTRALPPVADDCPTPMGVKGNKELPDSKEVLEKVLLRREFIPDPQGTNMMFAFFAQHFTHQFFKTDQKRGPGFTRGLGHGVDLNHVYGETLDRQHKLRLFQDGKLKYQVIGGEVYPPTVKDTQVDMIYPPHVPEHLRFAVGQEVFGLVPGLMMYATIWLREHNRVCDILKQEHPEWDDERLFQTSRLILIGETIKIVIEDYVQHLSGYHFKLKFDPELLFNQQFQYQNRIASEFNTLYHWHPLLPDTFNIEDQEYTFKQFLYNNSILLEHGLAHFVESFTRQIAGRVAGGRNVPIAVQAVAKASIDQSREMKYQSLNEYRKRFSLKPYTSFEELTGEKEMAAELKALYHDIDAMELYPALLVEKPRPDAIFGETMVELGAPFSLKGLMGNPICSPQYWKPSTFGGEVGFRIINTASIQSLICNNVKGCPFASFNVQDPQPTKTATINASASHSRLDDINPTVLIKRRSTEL
T2 sequence (Q63921 whole entry): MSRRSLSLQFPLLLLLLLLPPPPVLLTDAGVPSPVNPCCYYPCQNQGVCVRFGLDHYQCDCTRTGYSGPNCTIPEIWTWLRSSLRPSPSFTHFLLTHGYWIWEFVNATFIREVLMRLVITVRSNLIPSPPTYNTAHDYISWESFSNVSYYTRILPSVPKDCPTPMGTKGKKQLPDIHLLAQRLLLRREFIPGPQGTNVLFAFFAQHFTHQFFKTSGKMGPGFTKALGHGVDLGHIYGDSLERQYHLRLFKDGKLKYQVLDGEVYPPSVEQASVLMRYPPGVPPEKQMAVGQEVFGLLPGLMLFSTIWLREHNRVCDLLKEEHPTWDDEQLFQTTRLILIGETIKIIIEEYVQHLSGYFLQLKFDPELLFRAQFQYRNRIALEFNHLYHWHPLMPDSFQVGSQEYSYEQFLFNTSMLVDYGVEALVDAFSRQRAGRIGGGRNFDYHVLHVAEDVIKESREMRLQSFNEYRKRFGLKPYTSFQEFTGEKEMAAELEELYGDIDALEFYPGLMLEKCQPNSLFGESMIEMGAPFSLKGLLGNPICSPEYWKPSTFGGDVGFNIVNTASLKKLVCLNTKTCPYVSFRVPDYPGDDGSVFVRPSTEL

Cavia porcellus [15] = assay: Inhibition of ovalbumin-induced broncho constriction in Guinea pig after intraduodenal administration of a dose of 25 mg/kg; type: functional
Cavia porcellus [16] = organism: Cavia porcellus; assay: Dose of antagonist that produces 50% inhibition of ovalbumin-induced bronchoconstriction.; type: functional
Cavia porcellus [17] = assay: Tested for the inhibition of ovalbumin induced bronchoconstriction in Guinea pig, compound injected intragastrically at dose of 10 mg/kg.; type: functional; settings: po, route intragastric
Cavia porcellus [18] = assay: Tested for the inhibition of LTD4-induced bronchoconstriction in Guinea pig, compound injected intragastrically at dose of 3 mg/kg.; type: functional; settings: po, route intragastric
Cavia porcellus [19] = assay: Tested for the inhibition of ovalbumin- induced bronchoconstriction in Guinea pig, compound injected intragastrically at dose of 25 mg/kg.; type: functional; settings: po, route intragastric
Cavia porcellus [20] = assay: In vitro inhibition of LTD4-induced bronchoconstriction into isolated guinea pig trachea by injecting intragastrically; type: functional; settings: po
Cavia porcellus [21] = assay: Tested for the inhibition of LTD4-induced bronchoconstriction in Guinea pig, injected intraduodenally, dose is 10 mg/kg; type: functional; settings: route intraduodenal
Cavia porcellus [22] = assay: Inhibition of ovalbumin-induced broncho constriction in Guinea pig after intraduodenal administration of a dose of 10 mg/kg; type: functional
Cavia porcellus [23] = assay: Tested for the inhibition of LTD4-induced bronchoconstriction in Guinea pig, injected intragastrically, dose is 3 mg/kg.; type: functional; settings: po, route intragastric
Cavia porcellus [24] = assay: Tested for the inhibition of LTD4-induced broncho constriction in Guinea pig, injected intraduodenally at a dose of 25 mg/kg; type: functional; settings: route intraduodenal
Cavia porcellus [25] = assay: Inhibition of LTD4-induced broncho constriction in Guinea pig after intraduodenal administration of a dose of 25 mg/kg; type: functional
Cavia porcellus [26] = assay: Tested for the inhibition of LTD4-induced bronchoconstriction in Guinea pig, compound injected intragastrically at dose of 3 mg/kg; type: functional; settings: po, route intragastric
[27] = molecular target: T1, Polyunsaturated fatty acid 5-lipoxygenase; assay: Concentration that produces 50% inhibition of A-23187-stimulated radiolabeled 5-HETE and TXB2 synthesis by PMN 5-lipoxygenase; type: functional
Rattus norvegicus [28] = assay: Antiinflammatory effect was studied in a rat carrageenan paw edema (CE) assay at a dose of 50 mg/kg; type: functional
Cavia porcellus [29] = assay: Tested for the inhibition of ovalbumin- induced bronchoconstriction in Guinea pig, injected intragastrically, dose of 25 mg/kg; type: functional; settings: po, route intragastric
Cavia porcellus [30] = assay: Inhibition of LTD4-induced broncho constriction in Guinea pig after intragastrical administration of a dose of 3 mg/kg; type: functional; settings: po, route intragastric
Cavia porcellus [31] = organism: Cavia porcellus; assay: Dose of antagonist that produces 50% inhibition of ovalbumin-induced bronchoconstriction; type: functional
Cavia porcellus [32] = assay: In vitro inhibition of LTD4-induced bronchoconstriction into isolated guinea pig trachea by injecting intraduodenally; type: functional; settings: intraduodenal
Cavia porcellus [33] = assay: Tested for the inhibition of LTD4-induced bronchoconstriction in Guinea pig, injected intraduodenally, dose is 3 mg/kg; type: functional; settings: route intraduodenal
Cavia porcellus [34] = assay: Tested for the inhibition of ovalbumin- induced bronchoconstriction in Guinea pig, injected intragastrically, dose of 10 mg/kg; type: functional; settings: po, route intragastric
Cavia porcellus [35] = assay: In vitro inhibition of ovalbumin-induced bronchoconstriction after intragastrical administration 120 min before agonist into isolated guinea pig trachea; type: functional; settings: po
Cavia porcellus [36] = assay: In vitro inhibition of ovalbumin-induced bronchoconstriction in isolated guinea pig trachea by injecting intraduodenally; type: functional; settings: intraduodenal
Cavia porcellus [37] = assay: In vitro inhibition of LTD4-induced bronchoconstriction after intragastrical administration 120 min before agonist into isolated guinea pig trachea; type: functional; settings: po
Cavia porcellus [38] = assay: In vitro LTD4-induced bronchoconstriction in isolated guinea pig trachea by injecting intraduodenally; type: functional; settings: intraduodenal
Cavia porcellus [39] = assay: -log dissociation constant was determined In vitro in isolated guinea pig trachea after intraduodenal administration (before 10 min); type: ADME, organism-based; settings: in vivo, other

Cc1ccc(S(=O)(=O)NC(=O)c2ccc(OCc3ccc4ccccc4n3)cc2)cc1
inhibition in vivo at 25 mg/kg (Cavia porcellus [1]): < -9%

CONC(=O)c1cccc(OCc2ccc3ccccc3n2)c1
inhibition in vivo at 25 mg/kg (Cavia porcellus [2]): < 72% | inhibition in vivo at 25 mg/kg (Cavia porcellus [3]): < 77% | inhibition in vivo at 25 mg/kg (Cavia porcellus [4]): 93% | inhibition in vivo at 25 mg/kg (Cavia porcellus [5]): < -2% | inhibition in vivo at 3 mg/kg (Cavia porcellus [6]): -6% | inhibition in vivo at 3 mg/kg (Cavia porcellus [7]): 64% | inhibition in vivo at 10 mg/kg (Cavia porcellus [8]): 9% | inhibition in vivo at 10 mg/kg (Cavia porcellus [9]): 84%

Cc1ccc(S(=O)(=O)NC(=O)c2cccc(OCc3ccc4ccccc4n3)c2)cc1
IC50 [10]: 6.2 µM | inhibition in vivo at 25 mg/kg (Cavia porcellus [11]): 91% | inhibition in vivo at 50 mg/kg (Rattus norvegicus [12]): < 69% | pKb (Cavia porcellus [13]): 7.78 | inhibition in vivo at 3 mg/kg (Cavia porcellus [14]): 83% | IC50 (Cyclooxygenase): 13.4 µM | inhibition in vivo at 25 mg/kg (Cavia porcellus [15]): < 80% | ED50 (Cavia porcellus [16]): 2.02 mg/kg | inhibition in vivo at 10 mg/kg (Cavia porcellus [17]): 4% | inhibition in vivo at 3 mg/kg (Cavia porcellus [18]): 86% | inhibition in vivo at 25 mg/kg (Cavia porcellus [19]): < 57% | ED50 (Cavia porcellus [20]): 0.4 mg/kg

Cc1ccc(S(=O)(=O)NC(=O)c2cccc(OCc3ncc4ccccc4n3)c2)cc1
inhibition in vivo at 10 mg/kg (Cavia porcellus [21]): 50% | inhibition in vivo at 25 mg/kg (Cavia porcellus [11]): 99% | inhibition in vivo at 10 mg/kg (Cavia porcellus [22]): 66% | inhibition in vivo at 3 mg/kg (Cavia porcellus [23]): 60% | inhibition in vivo at 25 mg/kg (Cavia porcellus [24]): 85%

O=C(Cc1cccc(OCc2ccc3ccccc3n2)c1)NOCc1ccccc1
inhibition in vivo at 25 mg/kg (Cavia porcellus [11]): < 67% | inhibition in vivo at 25 mg/kg (Cavia porcellus [25]): < 26% | inhibition in vivo at 3 mg/kg (Cavia porcellus [26]): 18%

c1cc(Cc2nnn[nH]2)cc(OCc2ccc3ccccc3n2)c1
IC50 [27]: 3.9 µM | inhibition in vivo at 25 mg/kg (Cavia porcellus [11]): < 99% | inhibition in vivo at 50 mg/kg (Rattus norvegicus [28]): 30% | inhibition in vivo at 25 mg/kg (Cavia porcellus [29]): < 31% | inhibition in vivo at 3 mg/kg (Cavia porcellus [30]): 50% | ED50 (Cavia porcellus [31]): 6.7 mg/kg | ED50 (Cavia porcellus [32]): 3 mg/kg | inhibition in vivo at 3 mg/kg (Cavia porcellus [33]): 53% | inhibition in vivo at 10 mg/kg (Cavia porcellus [34]): 49% | inhibition in vivo at 25 mg/kg (Cavia porcellus [24]): < 94% | ED50 (Cavia porcellus [20]): 3 mg/kg

CCCc1c(OCCCCc2nnn[nH]2)ccc(C(C)=O)c1O [TOMELUKAST]
ED50 (Cavia porcellus [35]): 38 mg/kg | ED50 (Cavia porcellus [36]): 19 mg/kg | ED50 (Cavia porcellus [37]): 32 mg/kg | ED50 (Cavia porcellus [38]): 6 mg/kg | pKb (Cavia porcellus [39]): 6.55
